Starred links: 1 amine or outer side, 2 acyl side, 3 side chain; linkers in the order of their positions; H or OH if unused. Non-standard residues stand in square brackets, D forms with d. Residues, ends and D or L forms follow the SMILES beside them. Groups on a side chain read outwards from the residue. *: point of attachment. C20 diacid = O=C(O)CCCCCCCCCCCCCCCCCCC(=O)*; αMePhe(2-F) = C[C@](N)(Cc1ccccc1F)C(=O)O; γGlu = O=C(O)[C@H](CCC(=O)[*:2])N[*:1]; αMeL = CC(C)C[C@](C)(N)C(=O)O; AEEA = NCCOCCOCC(=O)O; Aib = CC(C)(N)C(=O)O
Tests used:
[1] = tested on: 3T3-L1 adipocytes; conditions: for Rel. A (Relative Activity) on 3T3-L1 adipocyte: relative to GIP
How it was run: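 Mouse 3T3-L1 preadipocytes were differentiated with IBMX, dexamethasone and insulin for 5 days, then insulin plus 10 uM rosiglitazone for 3 days, then 10% FBS medium for 2–3 days. Mature adipocytes received 10-point, 3-fold compound dilutions for 60 min at room temperature. cAMP was read by kit detection reagent after a further 60 min, with concentration-effect curves fitted.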

[2] = Rat pharmacokinetics (PK) study; format: in vivo; conditions: sc, male SD rats, subcutaneous 30 nmol/kg, plasma
Procedure: 7˜9 weeks old male SD rats (220-250 g, 3 rats/group) were subjected to subcutaneous injection of 30 nmol/kg compound. After administration, blood was collected through the jugular vein at time points 0.25, 2, 4, 8, 12, 16, 24, 48, 96, 120, and 144 hours. The blood was processed to obtain plasma samples and analyzed using LC-MS/MS. The blood concentration time curve was analyzed using Phoenix WinNonlin version 6.3 software (non compartment model), and PK parameters and half-life were calculated.

[3] = molecular target: Human GLP-1R (Homo sapiens, UniProt P43220); test: cAMP (HTRF) activity in HEK-293 cells stably overexpressing human GLP-1 receptor; format: cell-based; design: expressed in transfected cells; host or cells: HEK-293; conditions: for Human GLP-1R Rel. A (Relative Activity): EC50 of human GLP-1 (7-37) / EC50 of compound; for EC50: stable transfected cell cAMP activity, at least 3 independent tests
How it was run: (§1)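 Cells resuspended in HBSS are incubated with compound for 60 min at room temperature, then with HTRF cAMP detection reagent for a further 60 min. Concentration-response fits give agonist EC50 values in nM.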

[4] = molecular target: T1, Human GCG R (Homo sapiens, UniProt P47871); test: cAMP (HTRF) activity in HEK-293 cells stably overexpressing human GCG receptor; format: cell-based; conditions: EC50 of human GCG / EC50 of compound
T1 construct: expressed in transfected cells; host or cells: HEK-293
How it was run: as §1

Sequence of Human GLP-1R (P43220 24-463): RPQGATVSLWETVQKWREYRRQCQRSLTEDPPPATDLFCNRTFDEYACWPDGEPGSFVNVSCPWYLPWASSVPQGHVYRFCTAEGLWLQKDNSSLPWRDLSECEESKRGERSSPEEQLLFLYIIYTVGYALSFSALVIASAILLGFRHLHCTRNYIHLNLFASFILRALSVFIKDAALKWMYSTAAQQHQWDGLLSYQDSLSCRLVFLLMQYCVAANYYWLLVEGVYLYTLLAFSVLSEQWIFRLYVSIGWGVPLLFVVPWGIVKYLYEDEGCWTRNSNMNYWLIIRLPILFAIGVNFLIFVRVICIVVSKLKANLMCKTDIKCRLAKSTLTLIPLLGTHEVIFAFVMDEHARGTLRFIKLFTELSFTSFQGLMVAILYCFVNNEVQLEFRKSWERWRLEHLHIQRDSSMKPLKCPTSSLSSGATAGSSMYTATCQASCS
T1 sequence (P47871 26-477): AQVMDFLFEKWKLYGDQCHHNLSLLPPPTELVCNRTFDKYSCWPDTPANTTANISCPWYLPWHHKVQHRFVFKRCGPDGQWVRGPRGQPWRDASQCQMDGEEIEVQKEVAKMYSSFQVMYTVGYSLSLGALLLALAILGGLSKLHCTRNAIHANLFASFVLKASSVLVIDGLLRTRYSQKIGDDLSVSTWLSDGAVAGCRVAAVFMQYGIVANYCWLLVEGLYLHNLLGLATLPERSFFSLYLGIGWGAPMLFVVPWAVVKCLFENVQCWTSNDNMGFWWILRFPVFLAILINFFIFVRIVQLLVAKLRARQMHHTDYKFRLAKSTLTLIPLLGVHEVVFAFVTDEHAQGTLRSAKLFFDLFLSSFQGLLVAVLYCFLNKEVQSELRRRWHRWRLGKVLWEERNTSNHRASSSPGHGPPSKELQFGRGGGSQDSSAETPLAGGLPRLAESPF

Human GCG R Rel. A (Relative Activity) [4] [%]	SMILES	EC50 [1] [nM]	Rel. A (Relative Activity) on 3T3-L1 adipocyte [1] [%]	AUC(0-t) [2] [µM·h]	Cmax [2] [nM]	Tmax [2] [h]	half-life [2] [h]	Human GLP-1R Rel. A (Relative Activity) [3] [%]	EC50 [3] [nM]
	CC[C@H](C)[C@H](NC(=O)[C@H](Cc1ccccc1)NC(=O)[C@H](C)NC(=O)C(C)(C)NC(=O)[C@H](CCC(N)=O)NC(=O)[C@H](C)NC(=O)[C@H](CCCCNC(=O)COCCOCCNC(=O)COCCOCCNC(=O)CC[C@H](NC(=O)CCCCCCCCCCCCCCCCCCC(=O)O)C(=O)O)NC(=O)[C@H](CCCCN)NC(=O)[C@H](CC(=O)O)NC(=O)[C@H](CC(C)C)NC(=O)[C@H](Cc1ccccc1)NC(=O)[C@@H](NC(=O)[C@H](CO)NC(=O)[C@H](Cc1ccc(O)cc1)NC(=O)[C@H](CC(=O)O)NC(=O)[C@H](CO)NC(=O)[C@@H](NC(=O)[C@](C)(Cc1ccccc1F)NC(=O)[C@@H](NC(=O)CNC(=O)[C@H](CCC(N)=O)NC(=O)C(C)(C)NC(=O)[C@@H](N)Cc1ccc(O)cc1)[C@@H](C)O)[C@@H](C)O)[C@@H](C)CC)C(=O)N[C@@H](CCC(=O)O)C(=O)N[C@@H](Cc1ccc(O)cc1)C(=O)N[C@@H](CC(C)C)C(=O)N[C@@H](CC(C)C)C(=O)N[C@@H](CCC(=O)O)C(=O)NC(C)(C)C(=O)N[C@@H](Cc1c[nH]cn1)C(=O)N1CCC[C@H]1C(=O)N[C@@H](CO)C(=O)N[C@@H](CO)C(=O)NCC(=O)N[C@@H](C)C(=O)N1CCC[C@H]1C(=O)N1CCC[C@H]1C(=O)N1CCC[C@H]1C(=O)N[C@@H](CO)C(N)=O [Compound 18]	1.99	191.34	3.01	62.8	16	15.6	366.67	0.012
83.82	CC[C@H](C)[C@H](NC(=O)[C@H](Cc1ccccc1)NC(=O)[C@H](C)NC(=O)C(C)(C)NC(=O)[C@H](CCC(N)=O)NC(=O)[C@H](C)NC(=O)[C@H](CCCCNC(=O)COCCOCCNC(=O)COCCOCCNC(=O)CC[C@H](NC(=O)CCCCCCCCCCCCCCCCCCC(=O)O)C(=O)O)NC(=O)[C@H](CCCCN)NC(=O)[C@H](CC(=O)O)NC(=O)[C@H](CC(C)C)NC(=O)[C@](C)(CC(C)C)NC(=O)[C@@H](NC(=O)[C@H](CO)NC(=O)[C@H](Cc1ccc(O)cc1)NC(=O)[C@H](CC(=O)O)NC(=O)[C@H](CO)NC(=O)[C@@H](NC(=O)[C@](C)(Cc1ccccc1F)NC(=O)[C@@H](NC(=O)CNC(=O)[C@H](CCC(N)=O)NC(=O)C(C)(C)NC(=O)[C@@H](N)Cc1ccc(O)cc1)[C@@H](C)O)[C@@H](C)O)[C@@H](C)CC)C(=O)N[C@@H](CCC(=O)O)C(=O)N[C@@H](Cc1ccccc1)C(=O)N[C@@H](CC(C)C)C(=O)N[C@@H](CC(C)C)C(=O)N[C@@H](CCC(=O)O)C(=O)N[C@H](C(=O)NCC(=O)N1CCC[C@H]1C(=O)N[C@@H](CO)C(=O)N[C@@H](CO)C(=O)NC(C)(C)C(=O)N[C@@H](Cc1c[nH]cn1)C(=O)N1CCC[C@H]1C(=O)N1CCC[C@H]1C(=O)N1CCC[C@H]1C(=O)N[C@@H](CO)C(N)=O)[C@@H](C)O [Compound 38] (H-Y[Aib]QGT[αMePhe(2-F)]TSDYSI[αMeL]LDKK([AEEA-AEEA-γGlu-C20 diacid])AQ[Aib]AFIEFLLETGPSS[Aib]HPPPS-NH2; N-terminus assumed)	3.24	117.42	3.1	78.1	16	15.7	115.79	0.038

Reference: patent US20250129135A1, “Multi-Agonist and Use Thereof” (priority 2021, published 2025)
